Results published in ChEMBL document CHEMBL6121004, “Design, synthesis, and biological evaluation of Ponatinib-based N-Phenylpyrimidine-2-amine derivatives as novel fibroblast growth factor receptor 4 (FGFR4) selective inhibitors” (Eur J Med Chem, 2025).
Active and inactive are the calls of the source. No cut-off for these calls is given here.

Tests used:
Huh-7 [1] = test: Antitumor activity against human Huh-7 cells xenografted in nude mouse assessed as tumor growth inhibition at 50 mg/kg, ip administered for 15 days; type: functional; conditions: Huh-7, 360 h, time 15 day, read-out: TGI
Hep 3B2 [2] = test: cells; conditions: Homo sapiens, Hep3B, 72 h
Description: Antiproliferative activity against human Hep3B cells assessed as inhibition of cell proliferation incubated for 72 hrs by MTT assay

Huh-7 [3] = test: Induction of apoptosis in human Huh-7 cells assessed as viable cells at 0.1 uM incubated for 48 hrs by annexin V-FITC/propidium iodide staining based flow cytometry analysis (reference value: 84.91%); type: functional; conditions: read-out: Activity
[4] = Cmax in BALB/c male mouse at 10 mg/kg, po measured upto 24 hrs by LC-MS/MS analysis; type: ADME, organism-based; conditions: in vivo
[5] = Half life in BALB/c male mouse at 1 mg/kg, iv measured upto 24 hrs by LC-MS/MS analysis; type: ADME, organism-based; conditions: in vivo
Hep 3B2 [6] = test: Effect on FGFR4 level in human Hep3B cells at 0.25 to 1 uM incubated for 48 hrs by Western blot analysis; type: functional, cell-based; conditions: dose 0.25-1 µM
Hep 3B2 [7] = test: Induction of apoptosis in human Hep3B cells assessed as early apoptotic cells at 0.25 uM incubated for 48 hrs by annexin V-FITC/propidium iodide staining based flow cytometry analysis (reference value: 4.69%); type: functional
Huh-7 [8] = test: Induction of apoptosis in human Huh-7 cells assessed as necrotic cells at 0.5 uM incubated for 48 hrs by annexin V-FITC/propidium iodide staining based flow cytometry analysis (reference value: 5.20%); type: functional
Huh-7 [9] = test: Induction of apoptosis in human Huh-7 cells assessed as viable cells at 1 uM incubated for 48 hrs by annexin V-FITC/propidium iodide staining based flow cytometry analysis (reference value: 84.91%); type: functional; conditions: read-out: Activity
[10] = Half life in BALB/c male mouse at 10 mg/kg, po measured upto 24 hrs by LC-MS/MS analysis; type: ADME, organism-based; conditions: in vivo
[11] = AUC (0 to t) in BALB/c male mouse at 1 mg/kg, iv measured upto 24 hrs by LC-MS/MS analysis; type: ADME, organism-based; conditions: in vivo
[12] = molecular target: Tyrosine-protein kinase ABL2 (Homo sapiens) (UniProt P42684); test: Inhibition of ABL2 (unknown origin) at 1 uM relative to control
Hep 3B2 [13] = test: Induction of apoptosis in human Hep3B cells assessed as viable cells at 0.25 uM incubated for 48 hrs by annexin V-FITC/propidium iodide staining based flow cytometry analysis (reference value: 84.91%); type: functional; conditions: read-out: Activity
[14] = Toxicity in male nude mouse implanted with human Huh-7 cells assessed as spleen damage at 12.5 to 50 mg/kg, ip administered for 15 days; type: organism-based; conditions: in vivo, 360 h, dose 12.5-50 mg/kg, time 15 day
Hep 3B2 [15] = test: Effect on MAPK level in human Hep3B cells at 0.25 to 1 uM incubated for 48 hrs by Western blot analysis; type: functional, cell-based; conditions: dose 0.25-1 µM
Huh-7 [16] = test: Induction of apoptosis in human Huh-7 cells assessed as late apoptotic cells at 1 uM incubated for 48 hrs by annexin V-FITC/propidium iodide staining based flow cytometry analysis (reference value: 5.20%); type: functional
Hep 3B2 [17] = test: Induction of apoptosis in human Hep3B cells assessed as necrotic cells at 0.5 uM incubated for 48 hrs by annexin V-FITC/propidium iodide staining based flow cytometry analysis (reference value: 5.20%); type: functional
Huh-7 [18] = test: Induction of apoptosis in human Huh-7 cells assessed as early apoptotic cells at 0.1 uM incubated for 48 hrs by annexin V-FITC/propidium iodide staining based flow cytometry analysis (reference value: 4.59%); type: functional
Homo sapiens = organism: Homo sapiens; test: Inhibition of SRC (unknown origin) at 1 uM relative to control
Huh-7 [19] = test: Antitumor activity against human Huh-7 cells xenografted in nude mouse assessed as tumor growth inhibition at 25 mg/kg, ip administered for 15 days; type: functional; conditions: Huh-7, 360 h, time 15 day, read-out: TGI
Hep 3B2 [20] = test: Induction of apoptosis in human Hep3B cells assessed as early apoptotic cells at 0.5 uM incubated for 48 hrs by annexin V-FITC/propidium iodide staining based flow cytometry analysis (reference value: 4.69%); type: functional
Hep 3B2 [21] = test: Induction of apoptosis in human Hep3B cells assessed as necrotic cells at 1 uM incubated for 48 hrs by annexin V-FITC/propidium iodide staining based flow cytometry analysis (reference value: 5.20%); type: functional
[22] = Clearance in BALB/c male mouse at 1 mg/kg, iv measured upto 24 hrs by LC-MS/MS analysis; type: ADME, organism-based; conditions: in vivo
Huh-7 [23] = test: Induction of apoptosis in human Huh-7 cells assessed as early apoptotic cells at 0.5 uM incubated for 48 hrs by annexin V-FITC/propidium iodide staining based flow cytometry analysis (reference value: 4.59%); type: functional
Huh-7 [24] = test: Induction of apoptosis in human Huh-7 cells assessed as viable cells at 0.5 uM incubated for 48 hrs by annexin V-FITC/propidium iodide staining based flow cytometry analysis (reference value: 84.91%); type: functional; conditions: read-out: Activity
Hep 3B2 [25] = test: Induction of apoptosis in human Hep3B cells assessed as early apoptotic cells at 1 uM incubated for 48 hrs by annexin V-FITC/propidium iodide staining based flow cytometry analysis (reference value: 4.69%); type: functional
[26] = Oral bioavailability in BALB/c male mouse at 10 mg/kg measured upto 24 hrs by LC-MS/MS analysis; type: ADME, organism-based; conditions: in vivo
Huh-7 [27] = test: Downregulation of FAK level in human Huh-7 cells at 0.25 to 1 uM incubated for 48 hrs by Western blot analysis; type: functional, cell-based; conditions: dose 0.25-1 µM
[28] = Toxicity in male nude mouse implanted with human Huh-7 cells assessed as body weight loss at 12.5 to 50 mg/kg, ip administered for 15 days; type: organism-based; conditions: in vivo, 360 h, dose 12.5-50 mg/kg, time 15 day
[29] = Toxicity in male nude mouse implanted with human Huh-7 cells assessed as heart damage at 12.5 to 50 mg/kg, ip administered for 15 days; type: organism-based; conditions: in vivo, 360 h, dose 12.5-50 mg/kg, time 15 day
Hep 3B2 [30] = test: Induction of apoptosis in human Hep3B cells assessed as late apoptotic cells at 1 uM incubated for 48 hrs by annexin V-FITC/propidium iodide staining based flow cytometry analysis (reference value: 5.20%); type: functional
[31] = GSH reactivity in potassium phosphate buffer at pH 7.4 assessed as half life at 1 uM measured at 2 to 1440 mins by LC-MS/MS analysis; type: physicochemical; conditions: potassium phosphate buffer with GSH, time 2-1440 min
Hep 3B2 [32] = test: Induction of apoptosis in human Hep3B cells assessed as necrotic cells at 0.25 uM incubated for 48 hrs by annexin V-FITC/propidium iodide staining based flow cytometry analysis (reference value: 5.20%); type: functional
Hep 3B2 [33] = test: Induction of apoptosis in human Hep3B cells assessed as late apoptotic cells at 0.25 uM incubated for 48 hrs by annexin V-FITC/propidium iodide staining based flow cytometry analysis (reference value: 5.20%); type: functional
[34] = MRT (0 to t) in BALB/c male mouse at 10 mg/kg, po measured upto 24 hrs by LC-MS/MS analysis; type: ADME, organism-based; conditions: in vivo
Huh-7 [35] = test: Induction of apoptosis in human Huh-7 cells assessed as necrotic cells at 1 uM incubated for 48 hrs by annexin V-FITC/propidium iodide staining based flow cytometry analysis (reference value: 5.20%); type: functional
[36] = Toxicity in male nude mouse implanted with human Huh-7 cells assessed as lung damage at 12.5 to 50 mg/kg, ip administered for 15 days; type: organism-based; conditions: in vivo, 360 h, dose 12.5-50 mg/kg, time 15 day

Sequence of Tyrosine-protein kinase ABL2 (Homo sapiens) (P42684 whole entry): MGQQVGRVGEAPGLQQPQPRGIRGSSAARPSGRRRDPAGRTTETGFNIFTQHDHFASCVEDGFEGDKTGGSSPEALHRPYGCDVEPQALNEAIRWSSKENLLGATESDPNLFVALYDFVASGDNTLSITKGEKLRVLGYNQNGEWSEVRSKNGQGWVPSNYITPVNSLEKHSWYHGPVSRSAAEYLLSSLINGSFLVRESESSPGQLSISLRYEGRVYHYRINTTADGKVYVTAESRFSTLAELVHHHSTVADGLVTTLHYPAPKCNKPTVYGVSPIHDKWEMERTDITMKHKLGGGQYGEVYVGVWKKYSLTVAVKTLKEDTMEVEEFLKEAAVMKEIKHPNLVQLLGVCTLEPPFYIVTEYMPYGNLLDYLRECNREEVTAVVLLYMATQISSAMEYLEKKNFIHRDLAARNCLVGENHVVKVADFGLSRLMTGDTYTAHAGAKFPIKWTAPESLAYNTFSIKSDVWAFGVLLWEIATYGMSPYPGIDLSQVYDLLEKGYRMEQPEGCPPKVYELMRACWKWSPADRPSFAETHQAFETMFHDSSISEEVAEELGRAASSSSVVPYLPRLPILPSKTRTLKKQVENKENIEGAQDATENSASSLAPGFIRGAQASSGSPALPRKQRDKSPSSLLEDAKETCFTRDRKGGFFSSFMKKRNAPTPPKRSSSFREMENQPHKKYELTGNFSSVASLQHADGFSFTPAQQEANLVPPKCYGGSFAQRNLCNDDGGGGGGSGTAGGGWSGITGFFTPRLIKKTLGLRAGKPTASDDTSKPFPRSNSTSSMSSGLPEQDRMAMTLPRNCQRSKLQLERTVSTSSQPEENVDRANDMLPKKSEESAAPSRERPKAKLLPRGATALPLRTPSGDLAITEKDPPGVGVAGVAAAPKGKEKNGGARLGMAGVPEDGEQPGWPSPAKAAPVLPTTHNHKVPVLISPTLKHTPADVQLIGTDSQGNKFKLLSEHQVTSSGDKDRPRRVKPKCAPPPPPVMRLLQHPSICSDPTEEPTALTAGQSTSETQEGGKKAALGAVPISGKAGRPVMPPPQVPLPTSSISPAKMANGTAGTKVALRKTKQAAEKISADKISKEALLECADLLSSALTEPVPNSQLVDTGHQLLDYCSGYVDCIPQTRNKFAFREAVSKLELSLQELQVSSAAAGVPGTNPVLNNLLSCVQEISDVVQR

IC50 (Hep 3B2 [2]): 70 nM
Cmax [4]: 91.3 ng/mL
half-life [5]: 0.79 h
half-life [10]: 1.4 h
AUC(0-t) at 24 h [11]: 241 ng·h/mL
inhibition [12]: < 70%
inhibition (Homo sapiens): < 70%
clearance [22]: 67.9 mL/min/kg
bioavailability [26]: 17.8%
half-life at 1 µM [31]: 1.35 h
MRT last at 24 h [34]: 2.65 h
Structure (SMILES): C=CC(=O)Nc1cccc(C)c1Nc1ncc(C#Cc2cccc(C(=O)Nc3ccc(CN4CCN(C)CC4)c(C(F)(F)F)c3)c2)cn1
inhibition in vivo at 50 mg/kg (Huh-7 [1]): 69.8%
viability at 0.1 µM (Huh-7 [3]): 88.8%
Activity (Hep 3B2 [6]): Active
Activity (Hep 3B2 [7]): 4.38%
Activity (Huh-7 [8]): 8.41%
viability at 1 µM (Huh-7 [9]): 63%
viability at 0.25 µM (Hep 3B2 [13]): 80.8%
Activity [14]: Non-toxic
Activity (Hep 3B2 [15]): Active
Activity (Huh-7 [16]): 25.23%
Activity (Hep 3B2 [17]): 6.93%
Activity (Huh-7 [18]): 3.69%
inhibition in vivo at 25 mg/kg (Huh-7 [19]): 50.3%
Activity (Hep 3B2 [20]): 5.73%
Activity (Hep 3B2 [21]): 5.13%
Activity (Huh-7 [23]): 5.07%
viability at 0.5 µM (Huh-7 [24]): 75.3%
Activity (Hep 3B2 [25]): 9.61%
Activity (Huh-7 [27]): Active
Activity [28]: Non-toxic
Activity [29]: Non-toxic
Activity (Hep 3B2 [30]): 22.07%
Activity (Hep 3B2 [32]): 5.62%
Activity (Hep 3B2 [33]): 9.17%
Activity (Huh-7 [35]): 9.67%
Activity [36]: Non-toxic
